From patent US20200068887A1, “TREATMENT FOR REMOVING ECTOPARASITES FROM FISH” (priority 2016, published 2020)

Tested on: salmon louse
Assay: Bath treatment of lice-infected Atlantic salmon, percent lice removed
Type: in vivo
Conditions: 12° C.
Procedure: To determine the concentration- and time-dependence of imidacloprid treatment in vivo, Atlantic salmon (average of 320.9 g) were challenged with imidacloprid in seawater (32.5%0 salinity) at 12° C. The water level in the tank was lowered and aeration was employed during administration of the active. The salmon louse copepodid culture was counted and adjusted to obtain a target level of around 40 copepodids per fish in the challenge tank at each challenge time point.
Salmon lice on the fish were counted using standard methods. Only lice on the fish's outer surface, not including gills and oral/buccal cavities, were investigated.
Numbers of dissociated lice in tank water or attached to the tank walls were recorded. Lice in the tank water were collected and assessed for ability to attach by suction to a smooth plastic surface immediately after treatment and again after 30-60 minutes (to assess possible revival). Live and viable lice were also collected from the mock-treated control groups for reference and held in revival chambers for the same period of time to assess the system.
The test solutions of the active were prepared (added and homogenised with seawater) and administered to a treatment volume of 40 litres.
Three sea lice-infected fish from the holding tank were randomly gathered and carefully steered into a barrel forming an inner compartment (diameter=34.5-40 cm; height=54 cm) that was submerged in the tank and in which the base has been replaced with a plastic mesh screen with 9 mm^2 square holes.
The fish were transferred to the inner compartment within 3 minutes of each test start. The inner compartment was suspended/submerged in the holding tank pending treatment. Treatments and mock treatments were implemented by draining the inner compartment with fish and transferring it to a barrel containing the test solution. Treatments/mock treatments were performed in static water with aeration/oxygenation. Aeration was adjusted to set the oxygen saturation to 70-100%.
To terminate the treatment, the inner compartment with treated fish was lifted to the surface and drained, then fish were transferred directly and without water to a second basin with a lethal overdose of anaesthetic and left until dead. All lice remaining on these fish and lice that fell off in the anaesthetic bath were recorded.
Exposure times with imidacloprid ranged from 3 to 60 minutes, and doses ranged from 20 ppm to 200 ppm.
Negative control groups at 3- and 60 minutes were duplicated. Superscript numbers denote the total number of lice on the 3 fish in each test.
By way of comparison, fish infected with sea lice from the same sources were treated with azamethiphos at 0.1 mg/l and deltamethrin at 0.2 μ/l for 30 minutes, per the recommended dosage regimes. Treatments were carried out under similar conditions as those treated with imidacloprid. A mock-treatment control was also administered. Each treatment condition was administered in duplicate.
Superscript numbers denote the total number of lice on the 3 fish in each test.

O=[N+]([O-])NC1=NCCN1Cc1ccc(Cl)nc1 [imidacloprid]
percentage lice removed from fish after treatment relative to total numbers of lice (20 ppm, 30 minutes, total 36 lice on 3 fish): 63.9^36%
percentage lice removed from fish after treatment relative to total numbers of lice (20 ppm, 60 minutes, total 27 lice on 3 fish): 74.1^27%
percentage lice removed from fish after treatment relative to total numbers of lice (50 ppm, 30 minutes, total 23 lice on 3 fish): 91.3^23%
percentage lice removed from fish after treatment relative to total numbers of lice (100 ppm, 3 minutes, total 43 lice on 3 fish): 7.0^43%
percentage lice removed from fish after treatment relative to total numbers of lice (100 ppm, 15 minutes, total 38 lice on 3 fish): 73.7^38%
percentage lice removed from fish after treatment relative to total numbers of lice (200 ppm, 5 minutes, total 34 lice on 3 fish): 55.9^34%
percentage lice removed from fish after treatment relative to total numbers of lice (200 ppm, 15 minutes, total 47 lice on 3 fish): 91.5^47%
